We go through 1 compound from patent publication US20080242649A1, “New Combination 665” (priority 2007, published 2008).

This experiment concerns the target T1, Adrenergic β2 (Homo sapiens, UniProt P07550).
T1 construct: Adherent H292 cells were removed from tissue culture flasks; endogenous in cells; host or cells: H292 cells
Kind of experiment: Adrenergic β2 mediated cAMP production in H292 cells (AlphaScreen). It is filed as cell-based. As for the experimental part: Adrenergic β2 mediated cAMP production
H292 cells were grown in 225 cm2 flasks incubator at 37° C., 5% CO2 in RPMI medium containing, 10% (v/v) FBS (foetal bovine serum) and 2 mM L-glutamine.
Adherent H292 cells were removed from tissue culture flasks by treatment with Accutase™ cell detachment solution for 15 minutes. Flasks were incubated for 15 minutes in a humidified incubator at 37° C., 5% CO2. Detached cells were re-suspended in RPMI media (containing 10% (v/v) FBS and 2 mM L-glutamine) at 0.05×10^6 cells per mL. 5000 cells in 100 μL were added to each well of a tissue-culture-treated 96-well plate and the cells incubated overnight in a humidified incubator at 37° C., 5% CO2. The culture media was removed and cells were washed twice with 100 μL assay buffer and replaced with 50 μL assay buffer (HBSS solution containing 10 mM HEPES pH7.4 and 5 mM glucose). […]
The concentration of cAMP (cyclic adenosine monophosphate) in the cell lysate was determined using AlphaScreen™ methodology. […] The AlphaScreen™ signal was measured using an EnVision spectrophotometer (Perkin-Elmer Inc.) with the recommended manufacturer's settings. cAMP concentrations were determined by reference to a calibration curve determined in the same experiment using standard cAMP concentrations. […] Intrinsic Activity was expressed as a fraction relative to the maximum activity determined for formoterol in each experiment. […]

Counter-ions that a name gives are not always drawn.

T1 sequence (P07550 whole entry): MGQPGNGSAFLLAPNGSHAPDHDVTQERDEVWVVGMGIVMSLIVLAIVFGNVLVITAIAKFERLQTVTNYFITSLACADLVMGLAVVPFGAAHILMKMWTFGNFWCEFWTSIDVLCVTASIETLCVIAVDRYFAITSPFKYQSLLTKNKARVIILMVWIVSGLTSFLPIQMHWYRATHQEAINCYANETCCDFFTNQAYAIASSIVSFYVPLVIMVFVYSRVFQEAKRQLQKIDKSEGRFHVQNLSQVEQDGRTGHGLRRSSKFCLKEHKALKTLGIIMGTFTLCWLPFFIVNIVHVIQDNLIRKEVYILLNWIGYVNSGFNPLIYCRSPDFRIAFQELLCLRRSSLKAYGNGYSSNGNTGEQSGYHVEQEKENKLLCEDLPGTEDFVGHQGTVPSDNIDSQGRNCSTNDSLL

As to `CCN(CC)CCN(CCNCCc1ccc(O)c2[nH]c(=O)sc12)C(=O)CCOCCc1cccc2ccccc12` [Compound A, N-[2-(Diethylamino)ethyl]-N-(2-{[2-(4-hydroxy-2-oxo-2,3-dihydro-1,3-benzothiazol-7-yl)ethyl]amino}ethyl)-3-[2-(1-naphthyl)ethoxy]propanamide dihydrobromide], where the note is “H292 cells, cAMP, 300 μM rolipram, read-out: β2 pEC50 (converted)”, the EC50 is 6.31 nM. Further, the “β2 Int Act” value (Intrinsic Activity as fraction relative to maximum activity of formoterol) was 0.8.
